Experiment [1] deals with Phakopsora pachyrhizi. Kind of experiment: Test Example 15 Control Test Against Soybean Rust Fungus (spore germination, 96 well titer plate). In kind it is cell-based. Conditions: treatment concentration 1 ppm, 23° C., several hours. As for the experimental part: (§1) The term of “non-treated well” in Test Example 4, Test Example 5, and Test Example 6 represents a well wherein a test was carried out under the same conditions as those described in each Test Example except for dispensing DMSO instead of a diluted solution with DMSO comprising the Present compound. Also, the term of “non-treated” in Test Examples 15 to 17 represents a test which was carried out under the same conditions as those described in each Test Example except for dispensing DMSO instead of a diluted solution with DMSO comprising the Present compound. Also, the term of “non-treated leaf disk” in Test Example 7 represents a leaf disk wherein a test was carried out under the same conditions as those described in the Test Example except for dispensing DMSO instead of a diluted solution with DMSO comprising the Present compound. Also, the term of “non-treated” in Test Example 10 and Test Example 11 means that a diluted solution with water of a formulation comprising the Present compound was not sprayed.
The Present compound was diluted with DMSO to obtain a diluted solution containing 150 ppm of the compound, and 1 μL of the diluted solution was dispensed into a titer plate (96 well), and thereto was then dispensed 149 μL of an aqueous suspension (1.0×10^4/mL) of spores of Phakopsora pachyrhizi to which spores of Phakopsora pachyrhizi were suspended in advance. This plate was cultured at 23° C. for several hours, and then germinated spores of Phakopsora pachyrhizi were counted. As a result, when the treatment concentration was 1 ppm, the number of germinated spores in each well comprising any one of the Present compound 1, 11, 17, 18, 20, 23, 30, 33, 34, 35, 36, 37, 38, 39, 40, 41, 42, 43, 44, 46, 47, 48, 49, 50, 51, 52, 53, 54, 55, 56, 57, 58, 62, 63, 64, 65, 66, 67, 68, 69, 70, 71, 72, 73, 74, 75, 76, 77, 78, 79, 80, 81, 82, 83, 84, 85, 86, 87, 88, 89, 90, 91, 92, 93, 94, 95, 96, 97, 98, 99, 100, 101, or 102 as the test compound was 50% or less relative to the number of germinated spores in the non-treated well.

Experiment [2] deals with Phakopsora pachyrhizi. The experiment in a line: Test Example 11 Control Test Against Soybean Rust (pot test, spraying before inoculation). Format: in vivo. Conditions: 200 ppm foliage spray, soybeans (Kurosengoku), inoculated after 2 to 5 days. As for the experimental part: as §1
A plastic pot was filled with soil, soybeans (cultivar: Kurosengoku) were seeded thereto, and cultured in a greenhouse for 10 to 14 days. The Present compound 9, 10, 11, 13, 14, 15, 17, 18, 20, 21, 22, 23, 26, 27, 33, 34, 35, 36, 37, 38, 39, 40, 41, 42, 43, 44, 46, 47, 53, 54, 55, 56, 57, 58, 66, 67, 68, 69, 70, 71, 73, 74, 75, 76, 77, 78, 79, 80, 81, 82, 83, 84, 85, 86, 87, 88, 89, 90, 91, 92, 93, 94, 95, 96, 97, 98, 99, 100, 101, or 102 formulated according to the method described in the Formulation Example 1 was mixed with water in such a way that the concentration thereof was 200 ppm, and the resulting mixture was sprayed to foliage of the above soybeans so as to adequately adhere onto the surfaces of leaves of the above soybeans. After spraying the mixture, the soybeans were air-dried. After 2 to 5 days, an aqueous suspension of spores of Phakopsora pachyrhizi was inoculated by spraying to the soybeans. After the inoculation, the soybeans were placed in a greenhouse at 23° C. in daytime and at 20° C. in nighttime under a humid condition for 1 to 2 day(s), then cultured in a greenhouse for 12 days, and then a lesion area was investigated. As a result, the lesion area in the soybeans treated with each of the above Present compound was 30% or less relative to the lesion area in the non-treated soybeans.

Experiment [3] relates to soybean rust fungus (Phakopsora pachyrhizi) having an amino acid substitution of F129L in a mitochondrial cytochrome b protein. The experiment in a line: Test Example 7 Control Test Against Soybean Rust (leaf disk). In kind it is in vivo. Particulars: 200 ppm, 10 μL per soybean leaf disk (cultivar: Kurosengoku), inoculated after 1 day. The method, then: as §1
A true leaf of a soybean (cultivar: Kurosengoku) was cut into a diameter of 1 cm to prepare each leaf disk. To each well of a 24 well microplate was dispensed 1 mL of an agar medium (agar concentration 1.2%), and then one of said leaf disk was placed on the agar medium in each well. To a mixture of Sorpol (registered trademark) 1200KX (0.5 μL), DMSO (4.5 μL), and xylene (5 μL) was added a DMSO solution (20 μL) comprising a test compound (10000 ppm), and the resulting mixture was mixed. The resulting mixture was diluted with ion exchange water to prepare a mixture comprising a prescribed concentration of the test compound.
The resulting mixture was sprayed into each leaf disk at a ratio of 10 μL per leaf disk. After 1 day, an aqueous suspension of spores of soybean rust fungus (Phakopsora pachyrhizi) having an amino acid substitution of F129L in a mitochondrial cytochrome b protein (1.0×10^5/mL) was inoculated by spraying on each leaf disk. After the inoculation, the microplate was placed into an artificial climate chamber (Lighting: 6 hours, Lights-out: 18 hours, Temperature: 23° C., Humidity: 60%). After 1 day, the leaf disks were air-dried until water droplets on the surfaces of the leaf disks disappeared, and the microplate was placed into the artificial climate chamber again for 12 days. Then, lesion area of soybean rust was investigated. As a result, when the prescribed concentration was 200 ppm, each lesion area of leaf disk treated with any one of the Present compound 9, 10, 11, 13, 14, 15, 16, 17, 18, 20, 32, 33, 34, 35, 36, 37, 38, 39, 40, 42, 43, 44, 47, 48, 49, 50, 51, 52, 53, 55, 56, 57, 58, 62, 63, 64, 65, 66, 67, 68, 69, 70, 71, 73, 74, 75, 76, 77, 78, 79, 80, 81, 82, 83, 84, 85, 86, 87, 88, 89, 90, 91, 92, 93, 94, 95, 96, 97, 98, 99, 100, 101, or 102 as the test compound was 30% or less relative to the lesion area of non-treated leaf disk.

Regarding `Cc1ccc(S(=O)(=O)n2ccc(-c3ccc(Cl)cc3)n2)cc1` [compound 1], the “number of germinated spores relative to the non-treated well” value in experiment [1] is no more than 50%.
On to `O=S(=O)(c1ccccc1Cl)n1ccc(-c2cc(F)c(Br)c(F)c2)n1` [compound 11], for which the “lesion area relative to the lesion area in the non-treated soybeans” value in experiment [2] is no more than 30%. In addition, the “lesion area relative to the lesion area of non-treated leaf disk” value in experiment [3] is recorded as no more than 30%. Also, the “number of germinated spores relative to the non-treated well” value in experiment [1] is reported as no more than 50%.
As for `O=S(=O)(c1ccccc1F)n1ccc(-c2cc(F)c(Br)c(F)c2)n1` [compound 13], the “lesion area relative to the lesion area in the non-treated soybeans” value in experiment [2] is no more than 30%. In addition, the “lesion area relative to the lesion area of non-treated leaf disk” value in experiment [3] is given as no more than 30%.
With `O=S(=O)(c1ccc(F)cc1)n1ccc(-c2cc(F)c(Br)c(F)c2)n1` [compound 14], the “lesion area relative to the lesion area in the non-treated soybeans” value in experiment [2] was no more than 30%. Besides, the “lesion area relative to the lesion area of non-treated leaf disk” value in experiment [3] is no more than 30%.
For `O=S(=O)(c1c(Cl)cccc1Cl)n1ccc(-c2cc(F)c(Br)c(F)c2)n1` [compound 15], the “lesion area relative to the lesion area in the non-treated soybeans” value in experiment [2] was no more than 30%. In addition, the “lesion area relative to the lesion area of non-treated leaf disk” value in experiment [3] is listed as no more than 30%.
On to `O=S(=O)(c1cc(Cl)cc(Cl)c1)n1ccc(-c2cc(F)c(Br)c(F)c2)n1` [compound 16], for which the “lesion area relative to the lesion area of non-treated leaf disk” value in experiment [3] is on record as no more than 30%.
On to `O=S(=O)(c1cccc(Cl)c1)n1ccc(-c2cc(F)c(Br)c(F)c2)n1` [compound 18], for which the “lesion area relative to the lesion area in the non-treated soybeans” value in experiment [2] is listed as no more than 30%. In addition, the “lesion area relative to the lesion area of non-treated leaf disk” value in experiment [3] is recorded as no more than 30%. Further, the “number of germinated spores relative to the non-treated well” value in experiment [1] is reported as no more than 50%.
For the compound `Cc1cccc(S(=O)(=O)n2ccc(-c3cc(F)c(Br)c(F)c3)n2)c1` [compound 20], the “lesion area relative to the lesion area in the non-treated soybeans” value in experiment [2] is no more than 30%. Also, the “lesion area relative to the lesion area of non-treated leaf disk” value in experiment [3] is on record as no more than 30%. Besides, the “number of germinated spores relative to the non-treated well” value in experiment [1] was no more than 50%.
`Cc1ccc(S(=O)(=O)n2ccc(-c3cc(F)c(Br)c(F)c3)n2)cc1` [compound 21]: the “lesion area relative to the lesion area in the non-treated soybeans” value in experiment [2] is given as no more than 30%.
Regarding `COc1ccc(S(=O)(=O)n2ccc(-c3cc(F)c(Br)c(F)c3)n2)cc1` [compound 22], in experiment [2], the “lesion area relative to the lesion area in the non-treated soybeans” value was no more than 30%.
For the compound `COc1cccc(S(=O)(=O)n2ccc(-c3cc(F)c(Br)c(F)c3)n2)c1` [compound 23], the “lesion area relative to the lesion area in the non-treated soybeans” value in experiment [2] was no more than 30%. In addition, the “number of germinated spores relative to the non-treated well” value in experiment [1] was no more than 50%.
As to `N#Cc1cccc(S(=O)(=O)n2ccc(-c3cc(F)c(Br)c(F)c3)n2)c1` [compound 26], the “lesion area relative to the lesion area in the non-treated soybeans” value in experiment [2] is no more than 30%.
On the same count and under the same terms, with `N#Cc1ccc(S(=O)(=O)n2ccc(-c3cc(F)c(Br)c(F)c3)n2)cc1` [compound 27] the figure was no more than 30%.
As for `O=S(=O)(c1cc2ccccc2o1)n1ccc(-c2cc(F)c(Br)c(F)c2)n1` [compound 30], in experiment [1], the “number of germinated spores relative to the non-treated well” value is listed as no more than 50%.
In the case of `Cn1ccc(S(=O)(=O)n2ccc(-c3cc(F)c(Br)c(F)c3)n2)n1` [compound 34], in experiment [2], the “lesion area relative to the lesion area in the non-treated soybeans” value is listed as no more than 30%. The “lesion area relative to the lesion area of non-treated leaf disk” value in experiment [3] is given as no more than 30%. In experiment [1], the “number of germinated spores relative to the non-treated well” value is listed as no more than 50%.
Regarding `Cn1cc(S(=O)(=O)n2ccc(-c3cc(F)c(Br)c(F)c3)n2)cn1` [compound 35], the “lesion area relative to the lesion area in the non-treated soybeans” value in experiment [2] is on record as no more than 30%. Moreover, the “lesion area relative to the lesion area of non-treated leaf disk” value in experiment [3] is listed as no more than 30%. Further, in experiment [1], the “number of germinated spores relative to the non-treated well” value was no more than 50%.
Consider `Cn1ccnc1S(=O)(=O)n1ccc(-c2cc(F)c(Br)c(F)c2)n1` [compound 38], for which, in experiment [2], the “lesion area relative to the lesion area in the non-treated soybeans” value was no more than 30%. Besides, the “lesion area relative to the lesion area of non-treated leaf disk” value in experiment [3] is given as no more than 30%. Also, the “number of germinated spores relative to the non-treated well” value in experiment [1] is no more than 50%.
Take `CN(C)c1ccc(-c2ccn(S(=O)(=O)c3cccs3)n2)cc1` [compound 46]: the “lesion area relative to the lesion area in the non-treated soybeans” value in experiment [2] is recorded as no more than 30%. Further, the “number of germinated spores relative to the non-treated well” value in experiment [1] is reported as no more than 50%.
For `O=S(=O)(c1ccc(Cl)s1)n1ccc(-c2cc(F)c(Br)c(F)c2)n1` [compound 47], the “lesion area relative to the lesion area in the non-treated soybeans” value in experiment [2] is reported as no more than 30%. Moreover, the “lesion area relative to the lesion area of non-treated leaf disk” value in experiment [3] is on record as no more than 30%. Further, the “number of germinated spores relative to the non-treated well” value in experiment [1] is on record as no more than 50%.
Take `O=S(=O)(c1cccnc1Cl)n1ccc(-c2cc(F)c(Br)c(F)c2)n1` [compound 54]: the “lesion area relative to the lesion area in the non-treated soybeans” value in experiment [2] is no more than 30%. In addition, the “number of germinated spores relative to the non-treated well” value in experiment [1] is no more than 50%.
Take `O=S(=O)(c1cccnc1)n1ccc(-c2cccc(F)c2)n1` [compound 56]: in experiment [2], the “lesion area relative to the lesion area in the non-treated soybeans” value is on record as no more than 30%. Moreover, in experiment [3], the “lesion area relative to the lesion area of non-treated leaf disk” value is given as no more than 30%. Besides, in experiment [1], the “number of germinated spores relative to the non-treated well” value is no more than 50%.
For `O=S(=O)(c1cccnc1)n1ccc(-c2ccc(F)cc2)n1` [compound 57], the “lesion area relative to the lesion area in the non-treated soybeans” value in experiment [2] is on record as no more than 30%. Besides, in experiment [3], the “lesion area relative to the lesion area of non-treated leaf disk” value was no more than 30%. Besides, the “number of germinated spores relative to the non-treated well” value in experiment [1] is no more than 50%.
With `O=S(=O)(c1cccs1)n1ccc(-c2ccc3c(c2)OC(F)(F)O3)n1` [compound 63], the “lesion area relative to the lesion area of non-treated leaf disk” value in experiment [3] is given as no more than 30%. Further, the “number of germinated spores relative to the non-treated well” value in experiment [1] was no more than 50%.
Take `O=S(=O)(c1cccs1)n1ccc(-c2ccc3nonc3c2)n1` [compound 64]: in experiment [3], the “lesion area relative to the lesion area of non-treated leaf disk” value was no more than 30%. For the same compound, the “number of germinated spores relative to the non-treated well” value in experiment [1] is reported as no more than 50%.
As for `O=S(=O)(c1cccs1)n1ccc(-c2ccc3ncsc3c2)n1` [compound 65], the “lesion area relative to the lesion area of non-treated leaf disk” value in experiment [3] is no more than 30%. For the same compound, the “number of germinated spores relative to the non-treated well” value in experiment [1] is listed as no more than 50%.
Take `Cc1ccc(S(=O)(=O)n2ccc(-c3cc(F)c(Br)c(F)c3)n2)o1` [compound 72]: the “number of germinated spores relative to the non-treated well” value in experiment [1] is listed as no more than 50%.
